Data published in patent publication US11834453B2, “Substituted pyrimido[5,4-d]pyrimidines as HER2 inhibitors” (Array BioPharma Inc., priority 2020, dated 2023).
Read-outs that look alike come from different tables or passages of the source.

Columns and labels:
[1] = target: EGFR wild type (EGFR WT) (Homo sapiens (Human), UniProt P00533); experiment: Cellular phosphorylation assay, EGF-stimulated EGFR phosphorylation in engineered NIH 3T3 cells, Phospho-EGFR DuoSet IC ELISA, Assay 5; format: cell-based
EGFR wild type (EGFR WT), sequence (P00533 25-1210): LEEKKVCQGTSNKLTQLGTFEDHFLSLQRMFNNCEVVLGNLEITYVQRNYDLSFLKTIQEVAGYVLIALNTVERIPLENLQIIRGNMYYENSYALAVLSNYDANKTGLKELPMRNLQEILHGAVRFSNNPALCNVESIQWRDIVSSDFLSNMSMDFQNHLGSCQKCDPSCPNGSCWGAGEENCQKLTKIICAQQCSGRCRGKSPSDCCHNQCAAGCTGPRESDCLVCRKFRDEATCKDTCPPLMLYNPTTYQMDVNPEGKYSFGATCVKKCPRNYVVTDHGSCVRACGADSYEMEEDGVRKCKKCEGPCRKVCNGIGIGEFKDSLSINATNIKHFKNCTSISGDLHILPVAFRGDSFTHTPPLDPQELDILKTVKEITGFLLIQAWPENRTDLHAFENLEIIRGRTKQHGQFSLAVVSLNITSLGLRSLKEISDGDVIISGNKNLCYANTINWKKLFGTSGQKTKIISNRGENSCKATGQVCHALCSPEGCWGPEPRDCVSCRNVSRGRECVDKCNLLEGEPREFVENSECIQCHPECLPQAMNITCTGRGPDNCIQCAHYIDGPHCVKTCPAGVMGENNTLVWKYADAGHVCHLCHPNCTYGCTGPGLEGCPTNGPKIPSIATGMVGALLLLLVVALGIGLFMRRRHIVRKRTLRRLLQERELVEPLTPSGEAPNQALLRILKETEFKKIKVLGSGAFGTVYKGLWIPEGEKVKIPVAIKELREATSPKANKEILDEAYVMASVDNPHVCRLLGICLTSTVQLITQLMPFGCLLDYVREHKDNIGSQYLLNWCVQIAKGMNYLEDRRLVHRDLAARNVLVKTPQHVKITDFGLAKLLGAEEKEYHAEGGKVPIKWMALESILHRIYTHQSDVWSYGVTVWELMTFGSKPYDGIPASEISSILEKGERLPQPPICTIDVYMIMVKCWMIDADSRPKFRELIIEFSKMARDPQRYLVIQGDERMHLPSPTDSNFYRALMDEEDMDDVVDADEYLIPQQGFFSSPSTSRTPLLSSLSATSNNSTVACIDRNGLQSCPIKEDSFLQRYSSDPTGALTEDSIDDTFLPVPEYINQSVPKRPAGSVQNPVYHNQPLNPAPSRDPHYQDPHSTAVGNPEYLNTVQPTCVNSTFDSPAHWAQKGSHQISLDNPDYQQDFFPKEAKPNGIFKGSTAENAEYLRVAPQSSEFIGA
Protocol: NIH 3T3 cells were engineered to express EGFR wild type (EGFR WT; Assay 5, no footnote) with constructs obtained from GenScript and grown in DMEM supplemented with 10% fetal bovine serum and 15 μg/ml blasticidin. Cells were plated in 96-well plates at 20,000 cells/well and allowed to attach overnight at 37° C./5% CO2. Serially diluted compounds were added to the plates for 1 hour at 37° C./5% CO2. EGFR WT cells were stimulated with 100 ng/ml rEGF for an additional 10 minutes at 37° C./5% CO2. After compound incubation, medium was removed from the cells, which were then lysed in 100 μL/well lysis buffer according to the manufacturer's protocol (R&D Systems, DYC1095, Human Phospho-EGFR DuoSet IC ELISA). Same protocol was followed to determine the total levels of phospho-EGFR by measuring the optical density of each well using a VersaMax microplate reader. Curves were then generated and IC50 values calculated.

[2] = target: ErbB2 insYVMA (HER2-YVMA, SEQ ID NO: 2) (Homo sapiens, UniProt P04626, INS775YVMA/P1170A); experiment: biochemical; conditions: ErbB2 insYVMA enzyme assay
ErbB2 insYVMA (HER2-YVMA, SEQ ID NO: 2), sequence (P04626 with tags, fused parts or gaps INS775YVMA/P1170A limits assumed): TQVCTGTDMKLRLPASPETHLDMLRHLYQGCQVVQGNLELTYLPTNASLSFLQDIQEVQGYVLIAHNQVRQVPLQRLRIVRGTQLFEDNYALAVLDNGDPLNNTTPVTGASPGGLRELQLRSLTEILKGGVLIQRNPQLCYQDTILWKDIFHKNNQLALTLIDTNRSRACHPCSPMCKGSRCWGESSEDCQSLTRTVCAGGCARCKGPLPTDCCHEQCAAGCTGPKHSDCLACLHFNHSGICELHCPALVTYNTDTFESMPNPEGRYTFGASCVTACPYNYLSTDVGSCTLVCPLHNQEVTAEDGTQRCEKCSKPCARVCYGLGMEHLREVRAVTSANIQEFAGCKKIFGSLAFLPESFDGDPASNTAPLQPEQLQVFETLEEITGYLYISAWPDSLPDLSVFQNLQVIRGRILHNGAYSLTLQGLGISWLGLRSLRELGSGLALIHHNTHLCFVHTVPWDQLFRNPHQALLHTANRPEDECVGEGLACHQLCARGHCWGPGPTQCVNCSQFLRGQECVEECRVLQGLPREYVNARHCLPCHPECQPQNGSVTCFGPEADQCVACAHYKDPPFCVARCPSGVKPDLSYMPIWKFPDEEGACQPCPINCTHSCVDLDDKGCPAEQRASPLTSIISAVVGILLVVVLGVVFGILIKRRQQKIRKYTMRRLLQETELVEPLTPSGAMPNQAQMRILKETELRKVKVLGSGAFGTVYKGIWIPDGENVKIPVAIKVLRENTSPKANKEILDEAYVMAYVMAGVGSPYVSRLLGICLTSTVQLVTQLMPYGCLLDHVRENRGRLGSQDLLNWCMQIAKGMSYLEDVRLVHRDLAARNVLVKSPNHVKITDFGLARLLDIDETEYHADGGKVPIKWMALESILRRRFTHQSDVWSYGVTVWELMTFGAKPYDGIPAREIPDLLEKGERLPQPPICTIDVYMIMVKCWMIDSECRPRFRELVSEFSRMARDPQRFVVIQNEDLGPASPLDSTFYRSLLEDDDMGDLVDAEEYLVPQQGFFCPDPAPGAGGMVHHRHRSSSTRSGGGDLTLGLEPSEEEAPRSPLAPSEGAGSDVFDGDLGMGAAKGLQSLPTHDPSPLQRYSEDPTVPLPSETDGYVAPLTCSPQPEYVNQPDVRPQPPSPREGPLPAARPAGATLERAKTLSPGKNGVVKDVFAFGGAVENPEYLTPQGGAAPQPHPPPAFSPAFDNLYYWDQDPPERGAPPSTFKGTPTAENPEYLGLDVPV

[3] = target: ErbB2 with Exon 20 YVMA insertion (HER2-YVMA) (Homo sapiens (Human), UniProt P04626, INS775YVMA); experiment: Cellular phosphorylation assay, constitutive ErbB2 phosphorylation (Y1196) in engineered NIH 3T3 cells, Assay 4; format: cell-based
ErbB2 with Exon 20 YVMA insertion (HER2-YVMA), sequence (P04626 other isoform, or with tags, fused parts or gaps ins YVMA behind 775): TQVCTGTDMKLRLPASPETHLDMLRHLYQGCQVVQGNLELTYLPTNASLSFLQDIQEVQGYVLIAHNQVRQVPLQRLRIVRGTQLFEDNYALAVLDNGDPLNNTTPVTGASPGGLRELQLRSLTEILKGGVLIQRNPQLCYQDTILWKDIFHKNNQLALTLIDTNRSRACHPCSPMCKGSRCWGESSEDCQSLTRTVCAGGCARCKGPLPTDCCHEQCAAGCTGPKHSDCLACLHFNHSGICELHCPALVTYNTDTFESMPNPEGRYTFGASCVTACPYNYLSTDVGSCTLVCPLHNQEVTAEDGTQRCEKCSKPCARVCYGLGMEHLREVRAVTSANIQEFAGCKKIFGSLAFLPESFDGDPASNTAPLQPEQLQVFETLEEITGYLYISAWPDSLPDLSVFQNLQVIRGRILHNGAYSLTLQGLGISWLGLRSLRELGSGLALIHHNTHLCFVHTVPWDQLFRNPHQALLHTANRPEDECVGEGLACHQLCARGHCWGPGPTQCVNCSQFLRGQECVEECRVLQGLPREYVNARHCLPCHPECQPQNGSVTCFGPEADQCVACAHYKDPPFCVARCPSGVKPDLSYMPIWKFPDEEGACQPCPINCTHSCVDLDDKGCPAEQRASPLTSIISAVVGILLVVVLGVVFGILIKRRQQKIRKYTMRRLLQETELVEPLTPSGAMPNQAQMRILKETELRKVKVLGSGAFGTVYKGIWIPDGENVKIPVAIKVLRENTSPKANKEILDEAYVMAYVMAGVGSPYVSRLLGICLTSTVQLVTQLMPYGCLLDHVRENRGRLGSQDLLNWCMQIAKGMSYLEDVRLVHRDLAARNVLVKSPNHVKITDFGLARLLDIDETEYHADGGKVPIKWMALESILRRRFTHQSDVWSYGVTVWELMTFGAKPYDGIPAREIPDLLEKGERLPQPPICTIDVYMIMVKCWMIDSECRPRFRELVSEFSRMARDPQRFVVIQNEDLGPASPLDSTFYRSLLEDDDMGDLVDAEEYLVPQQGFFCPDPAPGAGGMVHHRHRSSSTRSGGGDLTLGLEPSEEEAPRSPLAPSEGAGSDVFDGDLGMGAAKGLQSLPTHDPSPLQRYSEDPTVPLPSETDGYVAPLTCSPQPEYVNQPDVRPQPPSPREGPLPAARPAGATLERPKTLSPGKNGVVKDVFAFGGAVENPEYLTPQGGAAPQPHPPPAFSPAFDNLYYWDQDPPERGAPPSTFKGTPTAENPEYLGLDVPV
In short: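 Engineered NIH 3T3 cells expressing HER2-YVMA treated with compounds 1 h at 37 °C, then formaldehyde-fixed and methanol-permeabilized. pErbB2 Y1196 detected by in-cell infrared immunofluorescence, normalized to GAPDH. IC50 from the normalized curves.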

[4] = target: EGFR (Homo sapiens (Human), UniProt P00533); experiment: ErbB enzyme assay (CisBio HTRF KinEASE-TK), Assay 3; format: biochemical
In short: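 Kinase + 250 nM biotin TK-substrate, 1 mM ATP, cpd (3-fold dil.), HEPES pH 7.4/10 mM MgCl2/0.01% Triton/2% DMSO; 30 min 22 °C. Quench w/ Sa-XL665 + TK-Ab-Cryptate, 1 h, HTRF. IC50 = 50 POC on 4PL fit.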

[5] = target: ErbB2 WT (Homo sapiens (Human), UniProt P04626); experiment: ErbB enzyme assay (CisBio HTRF KinEASE-TK), Assay 2; format: biochemical
ErbB2 WT, sequence (P04626 23-1255): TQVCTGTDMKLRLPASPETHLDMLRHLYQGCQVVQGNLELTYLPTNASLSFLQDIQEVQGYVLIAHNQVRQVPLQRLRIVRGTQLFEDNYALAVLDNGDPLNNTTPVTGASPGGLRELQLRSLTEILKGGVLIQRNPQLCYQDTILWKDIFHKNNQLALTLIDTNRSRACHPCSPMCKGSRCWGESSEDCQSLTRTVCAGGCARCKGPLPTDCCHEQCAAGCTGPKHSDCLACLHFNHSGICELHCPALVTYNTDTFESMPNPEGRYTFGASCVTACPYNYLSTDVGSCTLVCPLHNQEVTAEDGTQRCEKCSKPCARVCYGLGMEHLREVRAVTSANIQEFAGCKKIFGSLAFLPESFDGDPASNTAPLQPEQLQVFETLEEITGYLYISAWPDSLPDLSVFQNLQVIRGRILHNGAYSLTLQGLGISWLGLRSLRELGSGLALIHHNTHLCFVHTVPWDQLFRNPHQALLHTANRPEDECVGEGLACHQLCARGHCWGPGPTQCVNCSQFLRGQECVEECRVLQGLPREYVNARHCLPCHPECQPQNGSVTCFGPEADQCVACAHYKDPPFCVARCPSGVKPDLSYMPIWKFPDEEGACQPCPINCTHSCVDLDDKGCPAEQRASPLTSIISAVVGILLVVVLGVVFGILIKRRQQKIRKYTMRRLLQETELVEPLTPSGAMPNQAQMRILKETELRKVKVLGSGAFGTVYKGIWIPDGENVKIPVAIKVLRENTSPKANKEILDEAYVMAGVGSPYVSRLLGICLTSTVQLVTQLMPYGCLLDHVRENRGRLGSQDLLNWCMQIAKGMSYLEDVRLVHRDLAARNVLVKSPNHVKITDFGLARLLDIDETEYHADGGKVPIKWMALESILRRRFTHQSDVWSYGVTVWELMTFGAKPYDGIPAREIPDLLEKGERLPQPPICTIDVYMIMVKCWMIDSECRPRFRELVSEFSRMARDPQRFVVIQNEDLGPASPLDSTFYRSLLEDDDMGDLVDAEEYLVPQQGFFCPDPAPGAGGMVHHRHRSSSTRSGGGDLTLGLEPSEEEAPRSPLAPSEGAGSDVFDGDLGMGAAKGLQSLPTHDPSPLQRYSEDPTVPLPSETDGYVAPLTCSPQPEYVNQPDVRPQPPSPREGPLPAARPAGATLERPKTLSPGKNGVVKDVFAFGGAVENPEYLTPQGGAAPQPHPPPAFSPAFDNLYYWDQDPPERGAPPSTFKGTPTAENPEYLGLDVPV
In short: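 ErbB2 phosphorylates 250 nM biotin-TK substrate at 1 mM ATP in 25 mM HEPES pH 7.4, 10 mM MgCl2, 0.01% Triton X-100 and 2% DMSO, for 30 min at 22 °C. Product is detected by HTRF with Sa-XL665 and TK-Ab-Cryptate. Percent of control is set by DMSO-only wells and pre-quenched wells.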

SMILES	IC50 [1] [nM]	IC50 ([2]; read-out: Assay 1 IC50) [nM]	IC50 [3] [nM]	IC50 [4] [nM]	IC50 [5] [nM]	IC50 ([2]; Assay 1 IC50 (nM)) [nM]
Cc1cc(Nc2ncnc3cnc(N4CCC5COCC54)nc23)ccc1Oc1ccn2ncnc2c1 (centres unmarked) [Example 420]	≥ 5000	8.2	108	1580	12.9	–
COC1CCN(c2ncc3ncnc(Nc4ccc(Oc5ccn6ncnc6c5)c(C)c4)c3n2)CC1 [Example 411]	≥ 5000	26.3	604	≥ 10000	56.2	–
Cn1cnc2cc(Oc3ccc(Nc4ncnc5cnc(N6C[C@H]7CC[C@@H]6CO7)nc45)cc3Cl)ccc21 [Example 451]	≥ 5000	–	24.7	3500	63.8	42.7
Cc1cc(Nc2ncnc3cnc(N(C)CC(C)(C)CO)nc23)ccc1Oc1ccc2c(c1)ncn2C [Example 364]	≥ 5000	32.8	25.7	2680	29.5	–
O[C@@H]1C[C@@H]2C[C@H]1CN2c1ncc2ncnc(Nc3ccc(Oc4ccn5ncnc5c4)c(Cl)c3)c2n1 [Example 333]	≥ 5000	11.9	82.1	2230	23.2	–
Cn1cnc2cc(Oc3ccc(Nc4ncnc5cnc(N6C[C@@H]7C[C@H]6C[C@H]7O)nc45)cc3Cl)ccc21 [Example 492]	≥ 5000	24.7	37.2	4730	37.8	–
C[C@H]1CN(c2ncc3ncnc(Nc4ccc(Oc5ccn6ncnc6c5)c(Cl)c4)c3n2)C[C@@H]1O [Example 340]	≥ 5000	16.8	165	4000	41.2	–
CN(c1ncc2ncnc(Nc3ccc(Oc4ccn5ncnc5c4)c(Cl)c3)c2n1)C1COC1 [Example 424]	≥ 5000	16	44.9	3930	19.4	–
Cc1cc(Nc2ncnc3cnc(N4CC[C@H](C(F)F)C4)nc23)ccc1Oc1ccn2ncnc2c1 [Example 359]	≥ 5000	11.7	278	≥ 10000	32.7	–
Cc1cc(Nc2ncnc3cnc(N(C)[C@@H]4CCCOC4)nc23)ccc1Oc1ccn2ncnc2c1 [Example 415]	≥ 5000	16.9	94.6	970	16.8	–
CON1CCN(c2ncc3ncnc(Nc4ccc(Oc5ccn6ncnc6c5)c(C)c4F)c3n2)CC1 [Example 95, N-(4-([1,2,4]triazolo[1,5-a]pyridin-7-yloxy)-2-fluoro-3-methylphenyl)-6-(4-methoxypiperazin-1-yl)pyrimido[5,4-d]pyrimidin-4-amine]	≥ 5000	25.2	179	≥ 10000	95.1	–
Clc1cc(Nc2ncnc3cnc(N4CCOC5(CC5)C4)nc23)ccc1Oc1ccn2ncnc2c1 [Example 398]	≥ 5000	22.1	70.5	7770	36.5	–
Cn1cnc2cc(Oc3ccc(Nc4ncnc5cnc(N6C[C@@H]7C[C@H]6CO7)nc45)cc3Cl)ccc21 [Example 440]	≥ 5000	–	58.2	≥ 10000	176	48.7
CC(=O)O[C@H]1CN(c2ncc3ncnc(Nc4ccc(Oc5ccc6c(c5)ncn6C)c(C)c4)c3n2)C[C@H]1F [Example 90, (3S,4R)-4-fluoro-1-(8-((3-methyl-4-((1-methyl-1H-benzo[d]imidazol-5-yl)oxy)phenyl)amino)pyrimido[5,4-d]pyrimidin-2-yl) pyrrolidin-3-yl acetate]	≥ 5000	41	29	≥ 10000	93.1	–
Cn1cnc2cc(Oc3ccc(Nc4ncnc5cnc(N6CCN[C@H](C(F)(F)F)C6)nc45)cc3Cl)ccc21 [Example 445]	≥ 5000	65	44.2	4500	64.5	–
Cc1cc(Nc2ncnc3cnc(N4CCC[C@@H]4C(C)(C)O)nc23)ccc1Oc1ccc2c(c1)ncn2C [Example 371]	≥ 5000	67	127	≥ 10000	492	–

SMILES	IC50 [1] [nM]	IC50 ([2]; read-out: Assay 1 IC50) [nM]	IC50 [3] [nM]	IC50 [4] [nM]	IC50 [5] [nM]	IC50 ([2]; Assay 1 IC50 (nM)) [nM]
Cc1cc(Nc2ncnc3cnc(N4C5CCC4COC5)nc23)ccc1Oc1ccn2ncnc2c1 [Example 419]	≥ 5000	110	538	≥ 10000	196	–
Cc1cc(Nc2ncnc3cnc(N(CC(F)F)CC(F)F)nc23)ccc1Oc1ccc2c(c1)ncn2C [Example 344]	≥ 5000	161	128	≥ 10000	675	–
Cc1cc(Nc2ncnc3cnc(N4CCC[C@H]4C(C)(C)O)nc23)ccc1Oc1ccc2c(c1)ncn2C [Example 408]	≥ 5000	32.6	42.1	≥ 10000	65.6	–
Cc1cc(Nc2ncnc3cnc(N4CCC4)nc23)ccc1Oc1ccc2scnc2c1 [Example 44, 6-(azetidin-1-yl)-N-(4-(benzo[d]thiazol-5-yloxy)-3-methylphenyl)pyrimido[5,4-d]pyrimidin-4-amine 2,2,2-trifluoroacetate]	≥ 5000	103	70.6	3310	315	–
CO[C@H]1C[C@@H](Nc2ncc3ncnc(Nc4ccc(Oc5ccc6c(c5)ncn6C)c(C)c4)c3n2)C1 [Example 260]	≥ 5000	31.8	21.5	≥ 10000	42	–
Clc1cc(Nc2ncnc3cnc(N4CCO[C@H]5C[C@H]54)nc23)ccc1Oc1ccn2ncnc2c1 [Example 384]	≥ 5000	13.6	91.5	4310	43	–
Cn1cnc2cc(Oc3ccc(Nc4ncnc5cnc(N6CCC7(CCOC7)C6)nc45)cc3Cl)ccc21 (centres unmarked) [Example 443]	≥ 5000	–	37.7	≥ 10000	104	60.1
Cc1c(Oc2ccc3c(c2)ncn3C)ccc(Nc2ncnc3cnc(N4CC[C@H](O)C4)nc23)c1F [Example 458]	≥ 5000	13.3	75.2	1630	28	–
Cc1c(Oc2ccn3ncnc3c2)ccc(Nc2ncnc3cnc(N(C)[C@H]4CN(C)C[C@H]4F)nc23)c1F [Example 320]	≥ 5000	12.7	271	2340	36	–
Cc1cc(Nc2ncnc3cnc(N4CCC5(CCOC5)C4)nc23)ccc1Oc1ccc2c(c1)ncn2C (centres unmarked) [Example 15, N-(3-methyl-4-((1-methyl-1H-benzo[d]imidazol-5-yl)oxy)phenyl)-6-(2-oxa-7-azaspiro[4.4]nonan-7-yl)pyrimido[5,4-d]pyrimidin-4-amine]	≥ 5000	21.4	23.4	≥ 10000	51.1	–
C[C@H]1CN(c2ncc3ncnc(Nc4ccc(Oc5ccn6ncnc6c5)c(Cl)c4)c3n2)CCO1 [Example 327]	≥ 5000	20.8	105	3820	32.1	–
Cc1cc(Nc2ncnc3cnc(N4CCN(C)[C@H](C)C4)nc23)ccc1Oc1ccn2ncnc2c1 [Example 136, (R)—N-(4-([1,2,4]triazolo[1,5-a]pyridin-7-yloxy)-3-methylphenyl)-6-(3,4-dimethylpiperazin-1-yl)pyrimido[5,4-d]pyrimidin-4-amine]	≥ 5000	55.3	315	≥ 10000	59.3	–
Cc1cc(Nc2ncnc3cnc(N4CC5CC(C4)C5O)nc23)ccc1Oc1ccc2c(c1)ncn2C (centres unmarked) [Example 464]	≥ 5000	–	83.1	≥ 10000	60.2	9.4
Clc1cc(Nc2ncnc3cnc(N4C[C@H]5CC[C@@H]4CO5)nc23)ccc1Oc1ccn2ncnc2c1 [Example 389]	≥ 5000	16.7	127	≥ 10000	12.2	–
Cc1cc(Nc2ncnc3cnc(O[C@H]4CN(C)CC[C@H]4F)nc23)ccc1Oc1ccc2c(c1)ncn2C [Example 293]	≥ 5000	87.7	81.2	≥ 10000	568	–
